The values below come from article PMC10975980, “Open Meter Duo: Low-Cost Instrument for Fluorimetric Determination of Cholinesterase Activity” (Sensors (Basel, Switzerland), 2024).

SMILES strings stand for the structures.

For this experiment, the target named is T1, acetylcholinesterase from Electrophorus electricus (AChE, EC 3.1.1.7, type V-S) (Electrophorus electricus, UniProt O42275).
T1 construct: commercial native electric eel enzyme, type V-S (Merck), crude enzyme protein dissolved in PBS with BSA as stabilizer
T1 sequence (O42275 24-633): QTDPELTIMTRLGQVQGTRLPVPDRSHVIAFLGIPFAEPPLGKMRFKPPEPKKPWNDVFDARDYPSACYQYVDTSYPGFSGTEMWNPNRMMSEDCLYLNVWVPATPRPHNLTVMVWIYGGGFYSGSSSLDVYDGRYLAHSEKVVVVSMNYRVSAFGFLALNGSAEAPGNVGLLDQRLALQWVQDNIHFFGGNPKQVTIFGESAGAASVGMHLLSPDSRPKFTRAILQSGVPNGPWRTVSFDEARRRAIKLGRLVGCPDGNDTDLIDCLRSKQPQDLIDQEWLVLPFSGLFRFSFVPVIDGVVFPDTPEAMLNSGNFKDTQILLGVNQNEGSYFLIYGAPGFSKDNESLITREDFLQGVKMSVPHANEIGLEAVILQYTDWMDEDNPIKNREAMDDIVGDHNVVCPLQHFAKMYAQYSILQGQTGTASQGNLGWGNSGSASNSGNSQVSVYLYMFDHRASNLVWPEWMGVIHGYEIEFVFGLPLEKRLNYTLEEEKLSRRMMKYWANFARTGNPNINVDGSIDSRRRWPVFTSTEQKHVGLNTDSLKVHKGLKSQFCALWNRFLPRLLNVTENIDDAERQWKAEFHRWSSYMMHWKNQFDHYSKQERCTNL
The experiment in a line: fluorimetric indoxyl acetate assay (Open Meter Duo). It counts as biochemical. An excerpt: fluorimetric indoxyl acetate assay (Open Meter Duo) on acetylcholinesterase from Electrophorus electricus (AChE, EC 3.1.1.7, type V-S)

As usually defined, the IC50 is the concentration that inhibits the measured activity by half.

In turn, `CNC(=O)Oc1cccc2c1OC(C)(C)C2` [Carbofuran] returned a half-maximal inhibitory concentration (IC50) of 84.3 nM.
